Patent publication US9580444B2, “Polycyclic pyrazolinone derivative and herbicide comprising same as effective component thereof” (priority 2013, dated 2017)

Tested on: Eleocharis acicularis (needle spikerush)
Test: Test Example-1: herbicidal effect by a treatment before weeds are generated under submerged conditions
Assay type: in vivo
Details: 500 g a.i/ha, pre-emergence treatment, about 15 days after treatment, score 0-5
Summary of the method: (§1)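 Paddy soil in cups was puddled, seeded with the weeds and kept flooded; compound as wettable powder or emulsifiable concentrate was diluted and applied into the water on the seeding day at a set dosage. Effect was scored about 15 days later on a 0–5 scale.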

Question: With `O=c1c(-c2cc(OC3CCCC3)c(Cl)cc2Cl)c(Cl)n2n1CCCC2` [Example 1-307] as the compound, how does the “Herbicidal effect Eleocharis acicularis” value read?
Answer: 5 (Herbicidal effect/phytotoxicity was 90% or greater)

Question: With `CC=CCOc1cc(-c2c(Cl)n3n(c2=O)CCCC3)c(F)cc1Cl` [Example 1-209] as the compound, how does the “Herbicidal effect Eleocharis acicularis” value read?
Answer: 5 (Herbicidal effect/phytotoxicity was 90% or greater)

Tested on: Echinochloa oryzicola (barnyard grass)
Test: as above
Assay type: in vivo
Details: 500 g a.i/ha, pre-emergence treatment, about 15 days after treatment, score 0-5
Summary of the method: as §1

Question: How did the “Herbicidal effect Echinochloa oryzicola” value turn out when `O=c1c(-c2cc(OC3CCCC3)c(Cl)cc2Cl)c(Cl)n2n1CCCC2` [Example 1-307] was run?
Answer: 5 (Herbicidal effect/phytotoxicity was 90% or greater)

Question: How did the “Herbicidal effect Echinochloa oryzicola” value turn out when `CC=CCOc1cc(-c2c(Cl)n3n(c2=O)CCCC3)c(F)cc1Cl` [Example 1-209] was run?
Answer: 5 (Herbicidal effect/phytotoxicity was 90% or greater)

Tested on: Monochoria vaginalis (monochoria)
Test: as above
Assay type: in vivo
Details: 500 g a.i/ha, pre-emergence treatment, about 15 days after treatment, score 0-5
Summary of the method: as §1

Question: `O=c1c(-c2cc(OC3CCCC3)c(Cl)cc2Cl)c(Cl)n2n1CCCC2` [Example 1-307] was tested. Which “Herbicidal effect Monochoria vaginalis” value did it give?
Answer: 5 (Herbicidal effect/phytotoxicity was 90% or greater)

Question: Which “Herbicidal effect Monochoria vaginalis” value does the source give for `CC=CCOc1cc(-c2c(Cl)n3n(c2=O)CCCC3)c(F)cc1Cl` [Example 1-209] here?
Answer: 5 (Herbicidal effect/phytotoxicity was 90% or greater)

Tested on: other annual broad leaf weeds (Lindernia procumbens, Rotala indica, Elatine triandra)
Test: as above
Assay type: in vivo
Details: 500 g a.i/ha, pre-emergence treatment, about 15 days after treatment, score 0-5
Summary of the method: as §1

Question: With `O=c1c(-c2cc(OC3CCCC3)c(Cl)cc2Cl)c(Cl)n2n1CCCC2` [Example 1-307] as the compound, how does the “Herbicidal effect Broadleaf weed” value read?
Answer: 5 (Herbicidal effect/phytotoxicity was 90% or greater)

Question: Which “Herbicidal effect Broadleaf weed” value does the source give for `CC=CCOc1cc(-c2c(Cl)n3n(c2=O)CCCC3)c(F)cc1Cl` [Example 1-209] here?
Answer: 5 (Herbicidal effect/phytotoxicity was 90% or greater)

Tested on: Scirpus juncoides (bulrush)
Test: as above
Assay type: in vivo
Details: 500 g a.i/ha, pre-emergence treatment, about 15 days after treatment, score 0-5
Summary of the method: as §1

Question: For `O=c1c(-c2cc(OC3CCCC3)c(Cl)cc2Cl)c(Cl)n2n1CCCC2` [Example 1-307], which “Herbicidal effect Scirpus juncoides” value is on record?
Answer: 5 (Herbicidal effect/phytotoxicity was 90% or greater)

Question: For `CC=CCOc1cc(-c2c(Cl)n3n(c2=O)CCCC3)c(F)cc1Cl` [Example 1-209], which “Herbicidal effect Scirpus juncoides” value is on record?
Answer: 5 (Herbicidal effect/phytotoxicity was 90% or greater)

Tested on: Cyperus difformis (smallflower umbrella plant)
Test: as above
Assay type: in vivo
Details: 500 g a.i/ha, pre-emergence treatment, about 15 days after treatment, score 0-5
Summary of the method: as §1

Question: `O=c1c(-c2cc(OC3CCCC3)c(Cl)cc2Cl)c(Cl)n2n1CCCC2` [Example 1-307] was tested. Which “Herbicidal effect Cyperus difformis” value did it give?
Answer: 5 (Herbicidal effect/phytotoxicity was 90% or greater)

Question: For `CC=CCOc1cc(-c2c(Cl)n3n(c2=O)CCCC3)c(F)cc1Cl` [Example 1-209], which “Herbicidal effect Cyperus difformis” value is on record?
Answer: 5 (Herbicidal effect/phytotoxicity was 90% or greater)

Tested on: Chenopodium album (common lambsquarters)
Test: Test Example-4: herbicidal effect by a foliage treatment after weeds are generated under upland field conditions
Assay type: in vivo
Details: 500 g a.i/ha, foliage treatment after emergence, about 14 days after treatment, score 0-5
From the text: (§2) Using the formulation prepared according to the methods described above, the herbicidal effect of the bicyclic pyrazolinone derivative of the invention according to the methods shown in Test Examples below was examined. The herbicidal effect with respect to the test weeds or the phytotoxicity with respect to the test crops was examined according to the following criteria, and evaluated in six stage scores of 0 to 5. A vat having an area of 65 cm^2 and a depth of 2 cm was filled with upland soil, then, seeds of Amaranthus viridis (green amaranthus), Abutilon theophrasti (velvetleaf), Chenopodium album (common lambsquarters), […]. While watering was suitably performed on there, the seeds were grown for 14 days. A wettable powder or an emulsifiable concentrate of the compound of the present invention prepared according to Formulation Example was diluted, and a spray treatment was uniformly performed on the foliage portion of the plant so as to be a predetermined dosage in the amount of water of 4000 L per hectare. The herbicidal effect with respect to the test weeds and the phytotoxicity with respect to corn about 14 days after the treatment were evaluated according to the evaluation criteria in six stages of 0 to 5 described above.

Question: For `O=c1c(-c2cc(OC3CCCC3)c(Cl)cc2Cl)c(Cl)n2n1CCCC2` [Example 1-307], which “Herbicidal effect Chenopodium album” value is on record?
Answer: 5 (Herbicidal effect/phytotoxicity was 90% or greater)

Question: `CC=CCOc1cc(-c2c(Cl)n3n(c2=O)CCCC3)c(F)cc1Cl` [Example 1-209] was tested. Which “Herbicidal effect Chenopodium album” value did it give?
Answer: 5 (Herbicidal effect/phytotoxicity was 90% or greater)

Question: With `CC1(COc2cc(-c3c(Cl)n4n(c3=O)CCCC4)c(F)cc2Cl)CC(c2ccc(Cl)cc2Cl)=NO1` (stereo not drawn) [Example 4-12] as the compound, how does the “Herbicidal effect Chenopodium album” value read?
Answer: 5 (Herbicidal effect/phytotoxicity was 90% or greater)

Question: How did the “Herbicidal effect Chenopodium album” value turn out when `COc1cc(-c2c(Cl)n3n(c2=O)CCCCC3)c(F)cc1Cl` [Example 1-141] was run?
Answer: 5 (Herbicidal effect/phytotoxicity was 90% or greater)

Question: For `CCOC(=CC(=O)OCC(C)C)COc1cc(-c2c(Cl)n3n(c2=O)CCCC3)c(F)cc1Cl` [Example 2-27], which “Herbicidal effect Chenopodium album” value is on record?
Answer: 5 (Herbicidal effect/phytotoxicity was 90% or greater)

Question: Which “Herbicidal effect Chenopodium album” value does the source give for `C=CCOc1cccc(Oc2cc(-c3c(Cl)n4n(c3=O)CCCC4)c(F)cc2Cl)c1` [Example 3-28] here?
Answer: 5 (Herbicidal effect/phytotoxicity was 90% or greater)

Tested on: Abutilon theophrasti (velvetleaf)
Test: as above
Assay type: in vivo
Details: 500 g a.i/ha, foliage treatment after emergence, about 14 days after treatment, score 0-5
From the text: as §2

Question: With `O=c1c(-c2cc(OC3CCCC3)c(Cl)cc2Cl)c(Cl)n2n1CCCC2` [Example 1-307] as the compound, how does the “Herbicidal effect Abutilon theophrast” value read?
Answer: 5 (Herbicidal effect/phytotoxicity was 90% or greater)

Question: Which “Herbicidal effect Abutilon theophrast” value does the source give for `CC=CCOc1cc(-c2c(Cl)n3n(c2=O)CCCC3)c(F)cc1Cl` [Example 1-209] here?
Answer: 5 (Herbicidal effect/phytotoxicity was 90% or greater)

Question: Which “Herbicidal effect Abutilon theophrast” value does the source give for `CC1(COc2cc(-c3c(Cl)n4n(c3=O)CCCC4)c(F)cc2Cl)CC(c2ccc(Cl)cc2Cl)=NO1` (stereo not drawn) [Example 4-12] here?
Answer: 5 (Herbicidal effect/phytotoxicity was 90% or greater)

Question: With `COc1cc(-c2c(Cl)n3n(c2=O)CCCCC3)c(F)cc1Cl` [Example 1-141] as the compound, how does the “Herbicidal effect Abutilon theophrast” value read?
Answer: 5 (Herbicidal effect/phytotoxicity was 90% or greater)

Question: How did the “Herbicidal effect Abutilon theophrast” value turn out when `CCOC(=CC(=O)OCC(C)C)COc1cc(-c2c(Cl)n3n(c2=O)CCCC3)c(F)cc1Cl` [Example 2-27] was run?
Answer: 5 (Herbicidal effect/phytotoxicity was 90% or greater)

Question: `C=CCOc1cccc(Oc2cc(-c3c(Cl)n4n(c3=O)CCCC4)c(F)cc2Cl)c1` [Example 3-28] was tested. Which “Herbicidal effect Abutilon theophrast” value did it give?
Answer: 5 (Herbicidal effect/phytotoxicity was 90% or greater)

Tested on: Amaranthus viridis (green amaranthus)
Test: as above
Assay type: in vivo
Details: 500 g a.i/ha, foliage treatment after emergence, about 14 days after treatment, score 0-5
From the text: as §2

Question: With `O=c1c(-c2cc(OC3CCCC3)c(Cl)cc2Cl)c(Cl)n2n1CCCC2` [Example 1-307] as the compound, how does the “Herbicidal effect Amaranthus viridis” value read?
Answer: 5 (Herbicidal effect/phytotoxicity was 90% or greater)

Question: How did the “Herbicidal effect Amaranthus viridis” value turn out when `CC=CCOc1cc(-c2c(Cl)n3n(c2=O)CCCC3)c(F)cc1Cl` [Example 1-209] was run?
Answer: 5 (Herbicidal effect/phytotoxicity was 90% or greater)

Question: How did the “Herbicidal effect Amaranthus viridis” value turn out when `CC1(COc2cc(-c3c(Cl)n4n(c3=O)CCCC4)c(F)cc2Cl)CC(c2ccc(Cl)cc2Cl)=NO1` (stereo not drawn) [Example 4-12] was run?
Answer: 5 (Herbicidal effect/phytotoxicity was 90% or greater)

Question: With `COc1cc(-c2c(Cl)n3n(c2=O)CCCCC3)c(F)cc1Cl` [Example 1-141] as the compound, how does the “Herbicidal effect Amaranthus viridis” value read?
Answer: 5 (Herbicidal effect/phytotoxicity was 90% or greater)

Question: How did the “Herbicidal effect Amaranthus viridis” value turn out when `CCOC(=CC(=O)OCC(C)C)COc1cc(-c2c(Cl)n3n(c2=O)CCCC3)c(F)cc1Cl` [Example 2-27] was run?
Answer: 5 (Herbicidal effect/phytotoxicity was 90% or greater)

Question: How did the “Herbicidal effect Amaranthus viridis” value turn out when `C=CCOc1cccc(Oc2cc(-c3c(Cl)n4n(c3=O)CCCC4)c(F)cc2Cl)c1` [Example 3-28] was run?
Answer: 5 (Herbicidal effect/phytotoxicity was 90% or greater)

Tested on: corn
Test: Test Example-4: phytotoxicity by a foliage treatment after weeds are generated under upland field conditions
Assay type: in vivo
Details: 500 g a.i/ha, foliage treatment after emergence, about 14 days after treatment, score 0-5
From the text: as §2

Question: With `O=c1c(-c2cc(OC3CCCC3)c(Cl)cc2Cl)c(Cl)n2n1CCCC2` [Example 1-307] as the compound, how does the “Phytotoxicity Corn” value read?
Answer: 0 (Herbicidal effect/phytotoxicity was 0% to 10%)

Question: `CC=CCOc1cc(-c2c(Cl)n3n(c2=O)CCCC3)c(F)cc1Cl` [Example 1-209] was tested. Which “Phytotoxicity Corn” value did it give?
Answer: 2 (Herbicidal effect/phytotoxicity was 30% to 50%)

Question: Which “Phytotoxicity Corn” value does the source give for `CC1(COc2cc(-c3c(Cl)n4n(c3=O)CCCC4)c(F)cc2Cl)CC(c2ccc(Cl)cc2Cl)=NO1` (stereo not drawn) [Example 4-12] here?
Answer: 1 (Herbicidal effect/phytotoxicity was 10% to 30%)

Question: With `COc1cc(-c2c(Cl)n3n(c2=O)CCCCC3)c(F)cc1Cl` [Example 1-141] as the compound, how does the “Phytotoxicity Corn” value read?
Answer: 0 (Herbicidal effect/phytotoxicity was 0% to 10%)

Question: How did the “Phytotoxicity Corn” value turn out when `CCOC(=CC(=O)OCC(C)C)COc1cc(-c2c(Cl)n3n(c2=O)CCCC3)c(F)cc1Cl` [Example 2-27] was run?
Answer: 0 (Herbicidal effect/phytotoxicity was 0% to 10%)

Question: For `C=CCOc1cccc(Oc2cc(-c3c(Cl)n4n(c3=O)CCCC4)c(F)cc2Cl)c1` [Example 3-28], which “Phytotoxicity Corn” value is on record?
Answer: 0 (Herbicidal effect/phytotoxicity was 0% to 10%)
